Assay results from patent US12233088B2 (Alexion Pharmaceuticals, Inc., priority 2017, dated 2025).

Test system: patients with Wilson's disease
Description: This open-label, phase 2 study was performed at 11 hospitals in the USA and in Europe. […] Investigators, other hospital personnel, and patients were aware of the identity of the treatment. […] This study is registered with ClinicalTrials.gov, number NCT02273596.
The open-label, phase 2 study was performed at 11 hospitals. Eligible patients were aged 18 years or older, with a diagnosis of Wilson's disease established by a Leipzig score of 4 or more. […] Patients with decompensated hepatic cirrhosis, a MELD score greater than 11, or a modified Nazer score (revised King's score) greater than 6 were excluded.
Investigators, other hospital personnel, patients, and the study sponsor were aware of the identity of the treatment.
Up-titration was stepwise, with each increase restricted to double the previous dose, and not permitted if NCC was within or below the normal range.
Using values for plasma total copper and ceruloplasmin concentrations, NCC was calculated by subtracting the amount of copper bound to ceruloplasmin from total copper concentrations (determined with inductively coupled plasma mass spectrometry). […] The correction method used the average molar ratio of copper to molybdenum in the tripartite complex, which was determined using the relationship between NCC and plasma molybdenum concentrations and confirmed by two independent methods. The NCC correction method was validated using random selections of test and validation samples.
The primary endpoint was change in NCCcorrected from baseline to 24 weeks, which was measured as NCC concentrations corrected for copper contained in tetrathiomolybdate-copper-albumin complexes (NCCcorrected).
Secondary endpoints were safety and tolerability, change in and time to normalisation of NCCcorrected level clinical neurological disease, liver function, clinical symptoms, health-related quality of life (HRQoL), psychiatric status, and pharmacokinetics and exchangeable copper, speciation profiling, and urinary copper. Psychiatric status, pharmacokinetics data, and copper endpoints were also measured. Neurological disease was assessed as patient-reported disability, measured with UWDRS part II, and also as trained-rater-assessed neurological status, measured with UWDRS part III. Liver synthetic function was assessed by monitoring of international normalised ratio (INR) and albumin concentrations. Additionally, changes in liver function were assessed by modified Nazer score (based on bilirubin, INR, AST, albumin, and white blood cell count) and, in a post-hoc analysis, by the MELD score (based on bilirubin, creatinine, INR, and cause of liver disease). HRQoL was measured with the EuroQoL 5 Dimensions Visual Analogue Scale (EQ VAS).
Adverse event (AE) data was collected for onset, duration, seriousness, and severity, with relation to study medication determined by the investigator.
Since the aim of the study was to present primarily descriptive statistics, no formal power calculations were performed. Changes in copper concentrations and scores were summarised over time with descriptive statistics. Mixed-model repeated-measures analysis with a fixed-effect term were applied for clinic visit, and a spatial power covariance structure was applied to model the within-participant errors. A spatial power covariance structure was selected because it assumes that the within-participant correlation decays as the time distance increases between repeated measures. SAS (version 9.3) was utilised to provide change in least-squares mean over time, and the associated 95% CIs, SE, and two-sided p values.

[1] = baseline to week 24, least-squares mean, mixed-model repeated measures
[2] = baseline to week 24, mixed-model repeated measures
[3] = mixed-model repeated measures using all visits up to week 24

Which results are given for `C[N+](C)(C)CCO.C[N+](C)(C)CCO.[SH-].[SH-].[S]=[Mo]=[S]` [WTX101, bis-choline tetrathiomolybdate]?
Patients reporting at least one treatment-emergent adverse event, Number of Patients (%) (24 weeks, N=28): 17 (61%); adverse event ALT increased, Number of Patients (%) (24 weeks, N=28): 8 (29%); adverse event AST increased, Number of Patients (%) (24 weeks, N=28): 7 (25%); adverse event Blood alkaline phosphatase increased, Number of Patients (%) (24 weeks, N=28): 3 (11%); adverse event Dry Skin, Number of Patients (%) (24 weeks, N=28): 2 (7%); adverse event GGT increased, Number of Patients (%) (24 weeks, N=28): 8 (29%); adverse event Headache, Number of Patients (%) (24 weeks, N=28): 2 (7%); adverse event Hepatic enzyme increased, Number of Patients (%) (24 weeks, N=28): 4 (14%); adverse event Nausea, Number of Patients (%) (24 weeks, N=28): 2 (7%); adverse event Tremor, Number of Patients (%) (24 weeks, N=28): 2 (7%); Relationship to the study drug as deemed by the investigator: ALT increased (SAE, baseline to week 24): Possible; Relationship to the study drug as deemed by the investigator: Abnormal behavior (SAE, baseline to week 24): Unrelated; Relationship to the study drug as deemed by the investigator: Adjustment disorder (SAE, baseline to week 24): Unrelated; Relationship to the study drug as deemed by the investigator: Affective disorder (SAE, baseline to week 24): Unrelated; Relationship to the study drug as deemed by the investigator: Agranulocytosis (SAE, baseline to week 24): Probable; Relationship to the study drug as deemed by the investigator: Gait disturbance (SAE, baseline to week 24): Unlikely; Relationship to the study drug as deemed by the investigator: Hepatic enzyme increased (severe ALT/AST elevation) (SAE, baseline to week 24): Probable; Relationship to the study drug as deemed by the investigator: Mania (SAE, baseline to week 24): Unlikely; Relationship to the study drug as deemed by the investigator: Personality disorder (SAE, baseline to week 24): Unlikely; Relationship to the study drug as deemed by the investigator: Psychotic disorder (SAE, baseline to week 24): Unrelated; Relationship to the study drug as deemed by the investigator: Decline in neurological functioning (SAE, baseline to week 24, likely due to disease progression): Possible; week by which mean NCCcorrected was below the upper limit of normal (ULN 2.3 μmol/L): ≤ 12 week; time to normalisation of liver function tests (after dose adjustments or treatment interruption): 1-2 weeks; time of occurrence of liver enzyme increases (after initiation, at 30 mg/day or higher): 4-10 weeks; patients who achieved or maintained normalised NCCcorrected, n (%) (at 24 weeks, of 28 patients): 16 (57%); patients with at least a 25% reduction from baseline NCCcorrected, n (%) (at 24 weeks, of 28 patients): 4 (14%); patients meeting the criteria for treatment success (at 24 weeks, of 28 patients, normalised NCCcorrected (≤2.3 μmol/L) or ≥25% reduction): 71%; reduction of mean NCCcorrected (baseline to week 24): 72%; UWDRS part II score Change from baseline [1]: −3.7; UWDRS part III score Change from baseline [1]: −8.7; Albumin Change from baseline [2]: 2.3 g/L; Bilirubin Change from baseline [2]: 0.02 mg/dL; EQVAS Change from baseline [2]: 9.2; INR Change from baseline [2]: −0.05; Modified Nazer score Change from baseline [2]: −0.4; Platelets Change from baseline [2]: 2.3 1 × 10^9/L; MELD score Change from baseline (baseline to week 24, post-hoc, mixed-model repeated measures): −0.5; increase of median peak ALT from baseline (in the 11 patients with liver enzyme increases): 7.2 times; median peak ALT (in the 11 patients with liver enzyme increases, range 101-1341): 197 U/L; ALT Change from baseline [3]: 48.4 U/L; AST Change from baseline [3]: 3.8 U/L; GGT Change from baseline [3]: 60.7 U/L; most pronounced ALT signal (one patient, 30 mg/day): 1341 U/L; second highest ALT signal (one patient, 120 mg/day): 615 U/L; patients with UWDRS part II score improved by at least one point, n (%) (week 24): 12 (57%); patients with UWDRS part III score improved by 4 or more points, n (%) (week 24): 14 (67%); Modified Nazer score Week 24 Mean (SD) (week 24, n=21, baseline 1.4 (1.0)): 1.1 (0.6); EQVAS Week 24 Mean (SD) (week 24, n=23, baseline 65.9 (23.0)): 74.3 (16.9); INR Week 24 Mean (SD) (week 24, observed cases, n=22, baseline 1.11 (0.16)): 1.06 (0.08); Bilirubin Week 24 Mean (SD) (week 24, observed cases, n=23, baseline 0.51 (0.29)): 0.49 (0.27) mg/dL; NCCcorrected Week 24 Mean (SD) (week 24, observed cases, n=23, baseline 3.6 (2.1)): 0.9 (1.0) μmol/L; AST Week 24 Mean (SD) (week 24, observed cases, n=23, baseline 36.6 (27.6)): 28.2 (9.9) U/L; Albumin Week 24 Mean (SD) (week 24, observed cases, n=23, baseline 39.2 (5.4)): 40.9 (3.2) g/L; ALT Week 24 Mean (SD) (week 24, observed cases, n=23, baseline 42.6 (32.8)): 36.8 (18.7) U/L; GGT Week 24 Mean (SD) (week 24, observed cases, n=23, baseline 70.1 (64.0)): 97.5 (77.7) U/L; Platelets Week 24 Mean (SD) (week 24, observed cases, n=23, baseline 155.5 (72.5)): 147.9 (63.2) 1 × 10^9/L; MELD score Week 24 Mean (SD) (week 24, post-hoc, n=21, baseline 7.7 (1.9)): 7.2 (1.8)
